This is an account of results in patent US5451601A, “Perhydroisoindole derivatives and pharmaceutical compositions containing them” (Rhone-Poulenc Rorer S.A., priority 1991, dated 1995).

Assay type in all cases: in vivo
For assay [1], the system named is septide (agonist of substance P). Description: inhibition of the increase in capillary permeability brought about by septide, technique of A. Saria et al. adapted to mice. The note with it: Mus musculus, sc, septide-induced increase in capillary permeability. An excerpt:
The study of a number of isoindole derivatives of general formula (I) according to the technique of A. Saria et al., Arch.

Assay [2] in a line: analgesic activity, technique of Siegmund E. et al. The note with it: po. An excerpt: Exp. Biol. Med., 95, 729 (1957).
A further assay has as its system substance P. Description: antagonism of the hypotension induced by substance P, technique of C. A. Maggi et al. The conditions noted are these: rats; product 1 mg/kg i.v./min for 5 min; hypotension induced by i.v. injection of substance P. The text has this:
Injection of substance P into animals produces hypotension. The products studied in the technique of C. A. Maggi et al., J. Auton.

A word on the ED50: it is the dose at which the effect has come halfway, by size or by number of responders. Lower therefore signals greater potency. Regarding `CN(C)CCCOc1ccccc1CC(=O)N1C[C@@H]2[C@H](F)CCC(c3ccccc3)(c3ccccc3)[C@@H]2C1.Cl` [Example 1, (3aR,7R,7aR)-2-{[2-(3-dimethylaminopropoxy)phenyl]acetyl}-4,4-diphenyl-7-fluoroperhydroisoindole hydrochloride], the figures for the ED50 in assay [1] and in assay [2] were 0.7 mg/kg and 3 mg/kg, respectively. In addition, the “% inhibition of hypotension” value in the assay on substance P is recorded as 73%.
`COc1ccccc1[C@H](C)C(=O)N1C[C@@H]2[C@H](F)CCC(c3ccccc3)(c3ccccc3)[C@@H]2C1` [Example 7, (3aR,7R,7aR)-4,4-diphenyl-7-fluoro-2-[(S)-2-(2-methoxyphenyl)propionyl]perhydroisoindole]: the ED50 in assay [1] stood at 0.32 mg/kg; in assay [2], 1.5 mg/kg.
Take `O=C(Cc1ccccc1OCCCN1CCCC1)N1C[C@@H]2[C@H](F)CCC(c3ccccc3)(c3ccccc3)[C@@H]2C1` [Example 2]: the ED50 in assay [1] was 0.3 mg/kg; in assay [2], 2 mg/kg. The “% inhibition of hypotension” value in the assay with substance P stood at 68%.
